Consider 5 molecules from patent US11926614B2, “1,2,4-triazole derivatives as tankyrase inhibitors” (priority 2018, dated 2024).

One assay has as its target TNKS2 (Homo sapiens (Human), UniProt Q9H2K2). Put plainly: Biochemical IC50 TNKS2. Particulars: read-out: Biochemical IC50 TNKS2. The source says:
(§1) XLfit (idbs) was used to determine the IC50-values in inhibition experiments. The following formula was chosen to fit the data points (Langmuir Binding Isotherm): fit=((A+(B*x))+4(C−B)*(1−exp((−1*D)*x)))/D)), res=(y−fit)

In a further assay the test system is HEK293. Put plainly: Cellular IC50 HEK293. It is filed as cell-based. Particulars: Homo sapiens, HEK293, HEK293; read-out: Cellular IC50 HEK293.
Description: as §1

Molecules are shown by their SMILES.

Chain of TNKS2 (Q9H2K2 whole entry): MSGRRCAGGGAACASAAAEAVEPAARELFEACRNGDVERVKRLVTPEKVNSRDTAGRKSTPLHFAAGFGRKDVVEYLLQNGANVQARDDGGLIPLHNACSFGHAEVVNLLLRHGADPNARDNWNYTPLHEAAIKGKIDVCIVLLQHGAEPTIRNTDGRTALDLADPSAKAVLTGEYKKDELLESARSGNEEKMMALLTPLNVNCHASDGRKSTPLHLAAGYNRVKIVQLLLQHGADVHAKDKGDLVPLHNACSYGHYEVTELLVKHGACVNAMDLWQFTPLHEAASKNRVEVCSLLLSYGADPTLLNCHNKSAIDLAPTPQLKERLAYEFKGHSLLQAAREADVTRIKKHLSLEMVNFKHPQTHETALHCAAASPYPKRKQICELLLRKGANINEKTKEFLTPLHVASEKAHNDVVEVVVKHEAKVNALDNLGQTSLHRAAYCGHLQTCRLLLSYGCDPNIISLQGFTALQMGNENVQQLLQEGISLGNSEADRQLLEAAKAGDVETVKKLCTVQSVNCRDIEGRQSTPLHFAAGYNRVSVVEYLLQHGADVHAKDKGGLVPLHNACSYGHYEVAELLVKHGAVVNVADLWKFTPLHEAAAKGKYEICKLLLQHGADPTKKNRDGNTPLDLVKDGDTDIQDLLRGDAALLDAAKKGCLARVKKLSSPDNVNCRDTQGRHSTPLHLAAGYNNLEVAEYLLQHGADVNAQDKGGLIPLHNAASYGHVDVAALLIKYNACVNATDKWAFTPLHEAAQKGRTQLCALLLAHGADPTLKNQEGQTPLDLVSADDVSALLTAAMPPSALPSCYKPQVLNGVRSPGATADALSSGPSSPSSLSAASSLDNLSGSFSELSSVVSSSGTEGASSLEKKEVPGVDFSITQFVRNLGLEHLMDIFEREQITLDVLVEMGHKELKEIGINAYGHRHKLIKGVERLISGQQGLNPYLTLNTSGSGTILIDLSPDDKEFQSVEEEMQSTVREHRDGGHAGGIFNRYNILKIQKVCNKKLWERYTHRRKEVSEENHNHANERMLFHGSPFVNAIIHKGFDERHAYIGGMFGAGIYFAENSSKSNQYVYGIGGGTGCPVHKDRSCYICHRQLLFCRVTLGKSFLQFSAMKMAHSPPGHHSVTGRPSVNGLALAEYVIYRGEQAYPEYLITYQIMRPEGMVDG

Turning to `O=C(N[C@H]1C[C@H](c2nnc(-c3ccccn3)n2-c2ccccc2F)C1)c1ccc2cnccc2n1` [Example 192, N-((1S,3r)-3-(4-(2-fluorophenyl)-5-(pyridin-2-yl)-4H-1,2,4-triazol-3-yl)cyclobutyl)-1,6-naphthyridine-2-carboxamide], the IC50 (commonly the concentration at which inhibition is half-maximal) at TNKS2 came to 4.3 nM; in the assay on HEK293 it was 5.3 nM.
For `CCOc1ccc(-c2nnc([C@H]3C[C@H](NC(=O)c4ccc(C(C)(C)O)cn4)C3)n2-c2ccccc2F)nc1` [Example 101, N-((1S,3r)-3-(5-(5-ethoxypyridin-2-yl)-4-(2-fluorophenyl)-4H-1,2,4-triazol-3-yl)cyclobutyl)-5-(2-hydroxypropan-2-yl)picolinamide] the same measures were 22 nM and 96 nM.
For `CCOc1ccc(-c2nnc([C@H]3C[C@H](NC(=O)c4ccccc4)C3)n2-c2ccccc2)nc1` [Example 72, N-((1r,3r)-3-(5-(5-ethoxypyridin-2-yl)-4-phenyl-4H-1,2,4-triazol-3-yl)cyclobutyl)benzamide] the same measures were 14 nM and 30 nM.
Regarding `CCOc1ccc(-c2nnc([C@H]3C[C@H](NC(=O)c4cc(C)ccn4)C3)n2-c2ccccc2F)nc1` [Example 103, N-((1S,3r)-3-(5-(5-ethoxypyridin-2-yl)-4-(2-fluorophenyl)-4H-1,2,4-triazol-3-yl)cyclobutyl)-4-methylpicolinamide], the IC50 on TNKS2 was determined as 4.5 nM; with HEK293, 25 nM.
As to `O=C(N[C@H]1C[C@H](c2nnc(-c3nccs3)n2-c2ccccc2)C1)c1ccccn1` [Example 32, N-((1r,3r)-3-(4-phenyl-5-(thiazol-2-yl)-4H-1,2,4-triazol-3-yl)cyclobutyl)picolinamide], the concentration for half-maximal inhibition (IC50) worked out at 49 nM at TNKS2 and 229 nM in the assay with HEK293.
